Molecular target: human P2X7 receptor (Homo sapiens, UniProt Q99572, R270H/Y155H)
Assay: Evaluation of human P2X7 receptor inhibitory activity (Yo-Pro uptake, BzATP stimulation, FLIPR TETRA)
Type: cell-based
Conditions: 1321N1 cells stably expressing human P2X7 receptor; BzATP stimulation, Yo-Pro uptake; read-out: IC50 (antagonistic activity for the human P2X7 receptor)
How it was run: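 1321N1 cells stably expressing human P2X7 (T606C/G952A SNP variant), in HBSS buffer pH 7.4-7.5 with Yo-Pro, stimulated with BzATP; compound added 8 min after agonist. Fluorescence followed for 20 min on FLIPR; max-minus-min change gave % inhibition, IC50 by logistic fit.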

Row | SMILES | IC50
1 | Cc1ccc(C)c(Nc2nc(=NO)c(F)cn2Cc2cc(F)c(F)c(F)c2)c1 [Compound I-1290] | 21 nM
2 | CCc1cc(F)c(OC)cc1Nc1nc(=O)c(OC)cn1Cc1cc(F)cc(F)c1 [Compound I-0817] | 4 nM
3 | Cc1ccc(N2CCCS2(=O)=O)cc1Nc1nc(=O)c(F)cn1Cc1ccc(F)cc1 [Compound I-0207] | 9 nM
4 | COc1cn(Cc2ccc(F)c(Cl)c2)c(Nc2cc(C#N)ccc2C)cc1=O [Compound I-0957] | 110 nM
5 | Cc1nc2cc(C)c(Nc3nc(=O)c(C)nn3Cc3cc(F)c(F)c(F)c3)cc2s1 [Compound I-1267] | 10 nM
6 | COc1cn(Cc2ccc(Cl)cc2)c(Nc2cc(C)c(C)cc2C)nc1=O [Compound I-0193] | 18 nM
7 | COc1cn(Cc2ccc(F)c(Cl)c2)c(Nc2cc3ncccc3cc2C)nc1=O [Compound I-0771] | 43 nM

Same assay, conditions: 1321N1 cells stably expressing human P2X7 receptor; BzATP stimulation, Yo-Pro uptake; read-out: IC50 (antagonistic activity for the human P2X7 receptor), class symbol

Row | SMILES | IC50
8 | COc1cn(Cc2cccc(Cl)c2)c(Nc2cc3sc(C)nc3cc2C)nc1=O [Compound I-0562] | 10 to 100 nM
9 | COc1cc(C)c(Nc2nc(=O)c(F)cn2Cc2ccccc2)cc1OC [Compound I-0183] | 10 to 100 nM
10 | Cc1c(Cl)cccc1Nc1nc(=O)c(CCO)cn1Cc1ccccc1 [Compound I-0024] | 10 to 100 nM
11 | COc1cn(Cc2ccc(F)c(F)c2)c(Nc2cccc(C(F)(F)F)c2C)nc1=O [Compound I-0467] | < 10 nM
12 | COc1cc(Nc2nc(=O)c(OC)cn2Cc2cccc(Cl)c2)c(C)cc1Cl [Compound I-0534] | < 10 nM
13 | COc1cn(Cc2ccccc2)c(Nc2cccc(OC(C)C)c2C)nc1=O [Compound I-0129] | 100 to 500 nM
14 | COc1cc(C)c(Nc2nc(=O)c(Cl)cn2Cc2ccccc2)cc1OC [Compound I-0310] | 10 to 100 nM
15 | CCc1cc(C)c(C)cc1Nc1nc(=O)c(OC)cn1Cc1ccccc1 [Compound I-0265] | < 10 nM
16 | COc1cn(Cc2cc(F)cc(F)c2)c(Nc2cc(Cl)c(Cl)cc2C)nc1=O [Compound I-0541] | 10 to 100 nM
17 | COc1cn(Cc2ccccc2)c(Nc2cc3[nH]ncc3cc2C)nc1=O [Compound I-0221] | 10 to 100 nM
18 | COCc1cccc(Nc2nc(=O)c(OC)cn2Cc2ccc(F)c(Cl)c2)c1C [Compound I-0353] | 10 to 100 nM
19 | COc1cn(Cc2ccccc2)c(Nc2cccc(Oc3ccccn3)c2C)nc1=O [Compound I-0198] | 100 to 500 nM
20 | Cc1c(Cl)cccc1Nc1nc(=O)c(CC(=O)NCc2ccccc2)cn1Cc1ccccc1 [Compound I-0341] | 100 to 500 nM
21 | COc1cn(Cc2ccccc2)c(Nc2ccc(Br)cc2Cc2ccccc2)nc1=O [Compound I-0184] | 100 to 500 nM
22 | COc1cn(Cc2ccccc2COC(F)F)c(Nc2cccc(Cl)c2C)nc1=O [Compound I-0458] | 10 to 100 nM
23 | Cc1cccc(Nc2nc(=O)c(F)cn2Cc2ccccc2)c1C [Compound I-0128] | 10 to 100 nM
24 | COc1cn(Cc2ccccc2)c(Nc2cccc(OC(F)F)c2C)nc1=O [Compound I-0093] | 10 to 100 nM
25 | COc1cn(Cc2ccc(F)c(Cl)c2)c(Nc2ccc(C)cc2C)nc1=O [Compound I-0376] | < 10 nM

Row | SMILES | IC50
26 | COc1cn(Cc2ccccc2)c(Nc2cccc(C(F)(F)F)c2Cl)nc1=O [Compound I-0036] | 100 to 500 nM
27 | COc1cn(Cc2ccccc2)c(Nc2cccc(F)c2C)nc1=O [Compound I-0082] | 100 to 500 nM
28 | COc1cc(C)c(Nc2nc(=O)c(OC)cn2Cc2ccccc2)cc1OC [Compound I-0182] | < 10 nM
29 | COc1cn(Cc2cc(F)cc(Cl)c2)c(Nc2cc(C)c(Cl)cc2C)nc1=O [Compound I-0385] | 10 to 100 nM
30 | CCc1cc(OC)c(OC)cc1Nc1nc(=O)c(OC)cn1Cc1ccc(F)cc1 [Compound I-0270] | < 10 nM
31 | COCCNC(=O)Cc1cn(Cc2ccccc2)c(Nc2cccc(Cl)c2C)nc1=O [Compound I-0340] | 100 to 500 nM
32 | COc1cn(Cc2ccccc2)c(Nc2cc(CO)ccc2C)nc1=O [Compound I-0180] | 10 to 100 nM
33 | CCc1cc2c(cc1Nc1nc(=O)c(OC)cn1Cc1ccccc1Cl)CCC2 [Compound I-0194] | 10 to 100 nM
34 | CCOc1cc(C)c(Nc2nc(=O)c(OC)cn2Cc2ccc(F)cc2)cc1C [Compound I-0258] | < 10 nM
35 | Cc1c(Cl)cccc1Nc1nc(=O)c(CC(=O)NC2CCOCC2)cn1Cc1ccccc1 [Compound I-0338] | 100 to 500 nM
36 | COc1cc(C)cc(Nc2nc(=O)c(OC)cn2Cc2ccc(F)c(F)c2)c1C [Compound I-0404] | < 10 nM
37 | COc1cn(Cc2cc(F)cc(F)c2)c(Nc2cc(C)ccc2C)nc1=O [Compound I-0436] | < 10 nM
38 | COc1cccc(Nc2nc(=O)c(OC)cn2Cc2ccccc2)c1C [Compound I-0007] | 10 to 100 nM
39 | COc1cn(Cc2ccccc2)c(Nc2ccc(N3CCOCC3)cc2C)nc1=O [Compound I-0204] | 100 to 500 nM
40 | COc1cn(Cc2ccccc2COC(F)F)c(Nc2cccc(Cl)c2C)nc1=O [Compound I-0463] | < 10 nM
41 | COc1cn(Cc2ccccc2)c(NCc2c(C)cccc2C)nc1=O [Compound I-0131] | 100 to 500 nM
42 | COc1cn(Cc2ccc(F)c(F)c2)c(Nc2cc(C)c(Cl)cc2C)nc1=O [Compound I-0279] | < 10 nM

Same assay, conditions: antagonistic activity for the human P2X7 receptor; read-out: IC50

Row | SMILES | IC50
43 | COc1ccc(Nc2nc(=O)c(C(=O)O)nn2Cc2cc(F)c(F)c(F)c2)c(C)c1 [Compound I-1250] | 100 to 500 nM
44 | Cc1nc2cc(Cl)c(Nc3nc(=O)c(F)cn3Cc3ccc(F)c(Cl)c3)cc2o1 [Compound I-1077] | < 10 nM
45 | COc1ccc(Nc2nc(=O)c(Cl)cn2Cc2ccc(F)c(Cl)c2)c(C)c1 [Compound I-0843] | 10 to 100 nM
46 | COc1cn(Cc2cc(F)cc(Cl)c2)c(Nc2cc(C)cc3[nH]ccc23)nc1=O [Compound I-0649] | 10 to 100 nM
47 | CCOc1ccc(Nc2nc(=O)c(OC)cn2Cc2ccc(F)c(F)c2)c(C)c1 [Compound I-0678] | < 10 nM
48 | CCOc1ccc(Nc2nc(=O)c(OC)cn2Cc2ccccc2)c(C)c1 [Compound I-0676] | 100 to 500 nM
49 | COc1cn(Cc2ccc(F)c(Cl)c2)c(Nc2ccc3[nH]ccc3c2C)nc1=O [Compound I-0584] | < 10 nM
50 | COc1cn(Cc2ccc(F)c(F)c2)c(Nc2cc(OC(F)(F)F)ccc2C)nc1=O [Compound I-0693] | 10 to 100 nM
51 | COc1cn(Cc2cc(F)c(F)c(F)c2)c(Nc2cc3c(cc2C)OCC3)nc1=O [Compound I-0866] | < 10 nM
52 | COc1cn(Cc2ccccc2)c(Nc2cc(C)c(F)cc2C)cc1=O [Compound I-0946] | 500 to 1000 nM
53 | COc1cn(Cc2cc(F)c(F)c(F)c2)c(Nc2cc(Oc3ccccn3)ccc2C)nc1=O [Compound I-0899] | < 10 nM
54 | COc1cn(Cc2ccccc2)c(Nc2cc(-c3ccnn3C)ccc2C)nc1=O [Compound I-0782] | 100 to 500 nM
55 | COc1cc(Nc2nc(=O)c(OC)cn2Cc2cc(F)c(F)c(F)c2)c(C)cc1C [Compound I-0715] | < 10 nM
56 | COc1cn(Cc2ccc(F)c(Cl)c2)c(Nc2ccc3nc(C)sc3c2C)nc1=O [Compound I-0859] | 10 to 100 nM
57 | Cc1nc2cc(C)c(Nc3nc(=O)c(Cl)cn3Cc3ccc(F)c(Cl)c3)cc2s1 [Compound I-0787] | < 10 nM
58 | CON=c1nc(Nc2cc(C)ccc2C)n(Cc2cc(F)c(F)c(F)c2)cc1F [Compound I-1292] | 100 to 500 nM
59 | COc1nc(C)c(Nc2nc(=O)c(F)cn2Cc2ccc(F)c(Cl)c2)cc1C [Compound I-1004] | < 10 nM
60 | COc1cc(C)c(Nc2nc(=O)c(F)cn2Cc2cc(F)c(F)c(F)c2)cc1C [Compound I-1180] | < 10 nM
61 | COc1cn(Cc2ccc(F)c(F)c2)c(Nc2cc3sc(C)nc3cc2C)nc1=O [Compound I-0665] | < 10 nM

Row | SMILES | IC50
62 | COCc1cn(Cc2cc(F)c(F)c(F)c2)c(Nc2cc3c(cc2C)COC3)nc1=O [Compound I-1126] | 10 to 100 nM
63 | COc1cn(Cc2ccc(F)c(F)c2)c(Nc2cc(OC(F)F)ccc2C)nc1=O [Compound I-0873] | 10 to 100 nM
64 | COc1cn(Cc2ccc(F)c(Cl)c2)c(Nc2cc(-c3cccnc3)ccc2C)nc1=O [Compound I-0696] | < 10 nM
65 | Cc1cccc(Nc2nc(=O)c(F)cn2Cc2cc(F)c(F)c(F)c2)c1F [Compound I-1185] | < 10 nM
66 | COc1ccc(Nc2nc(=O)c(CCO)cn2Cc2cc(F)c(F)c(F)c2)c(C)c1 [Compound I-1104] | 10 to 100 nM
67 | COc1cn(Cc2cc(F)c(F)c(F)c2)c(Nc2cc3sc(C)nc3cc2C)nc1=O [Compound I-0697] | < 10 nM
68 | Cc1cc(Cl)ccc1Nc1nc(=O)c(F)cn1Cc1cc(F)c(F)c(F)c1 [Compound I-1192] | < 10 nM
69 | COc1cccc(Nc2nc(=O)c(OC)cn2Cc2ccc(F)cc2)c1C [Compound I-0661] | < 10 nM
70 | COc1ccc(Nc2nc(=O)c(Cl)cn2Cc2cc(F)cc(F)c2)c(C)c1 [Compound I-0845] | 10 to 100 nM
71 | COc1cn(Cc2ccccc2)c(Nc2cc(C)c(OC(F)F)cc2C)cc1=O [Compound I-0951] | 100 to 500 nM
72 | Cc1cc(C)c(OC(F)F)cc1Nc1nc(=O)c(F)cn1Cc1cc(F)c(F)c(F)c1 [Compound I-1230] | < 10 nM
73 | COc1cc(Nc2nc(=O)c(F)cn2Cc2cc(F)c(F)c(F)c2)c(C)cc1F [Compound I-1058] | < 10 nM
74 | CCOc1ccc(Nc2nc(=O)c(F)cn2Cc2cc(F)cc(F)c2)c(C)c1 [Compound I-1047] | 10 to 100 nM
75 | COc1ccc(Cl)c(Nc2nc(=O)c(F)cn2Cc2cc(F)c(F)c(F)c2)c1 [Compound I-1196] | < 10 nM
76 | COc1nc(C)c(Nc2nc(=O)c(F)cn2Cc2cc(F)cc(F)c2)cc1C [Compound I-1003] | < 10 nM
77 | COc1cn(Cc2cc(F)c(F)c(F)c2)c(Nc2cc(OCC(F)(F)F)ccc2C)nc1=O [Compound I-0932] | 10 to 100 nM
78 | Cc1ccc(CO)cc1Nc1nc(=O)c(F)cn1Cc1ccc(F)c(Cl)c1 [Compound I-1013] | < 10 nM
79 | COc1cc(C)c(Nc2nc(=O)c(OC)cn2Cc2cc(F)cc(F)c2)cc1F [Compound I-0721] | < 10 nM

Source: US10774051B2, “6-membered heterocyclic derivatives and pharmaceutical composition comprising the same” (Shionogi & Co., Ltd., priority 2015, dated 2020)
